These results are taken from US20230140200A1, “COMPOSITIONS AND METHODS FOR DETECTING CELLS UNDERGOING FERROPTOSIS USING AN ANTIBODY” (THE TRUSTEES OF COLUMBIA UNIVERSITY IN THE CITY OF NEW YORK, priority 2020, published 2023).

Assay [1] concerns HT-1080 cells. Description: Immunofluorescence staining of treated cells, quantification of membrane intensity. The conditions noted are these: 8 h. It is filed as cell-based, human.
Assay [2] concerns HT-1080 cells. The assay is described as follows: Nuclear shrinkage by immunofluorescence (DAPI nuclei, CellProfiler). It is filed as cell-based, human. The conditions noted are these: vs DMSO.
In another assay the test system is TfR1 mRNA. The assay is described as follows: qPCR of TfR1 transcripts. It is filed as cell-based, human. The conditions noted are these: 8 h, HT-1080 cells. The method, then:
HT-1080 cells were seeded in 6-well plates at a density of 400 k cells/well and incubated overnight. The following day, IKE or RSL3 were diluted into wells from stock solutions and treated for indicated time periods. Following treatment, cells were rinsed in cold PBS, trypsinized, and pelleted in Eppendorf tubes. RNA was isolated from cell pellets using Qiagen's RNeasy extraction kit, following manufacturer's instructions (Qiagen). RNA quantity and quality was evaluated by a nanodrop spectrophotometer (Thermo Fisher Scientific). cDNA was generated from 2 μg of total RNA, which was then diluted ten-fold and used as a template in qPCR reactions on a Viia7 Real-Time system. Gene specific primers were used as follows: TfR1 FW: 5′ […] 3′ (SEQ ID No: 18); TFR1 RV: 5′ […] 3′ (SEQ ID No: 19); GAPDH FW: 5′ […] 3′ (SEQ ID No: 20); GAPDH RV: 5′ […] 3′ (SEQ ID No: 21).
For orientation: Real-time PCR tracks product formation cycle by cycle.

The subject of assay [3] is HT-1080 cells. The assay is described as follows: Machine-learning training image set, TfR1 membrane fluorescence intensity. It is filed as cell-based, human. The conditions noted are these: fixed at 10-20% cell death. The method, then:
Immunofluorescence (IF). HT-1080 cells were treated with 1 μM RSL3, 20 μM IKE, or 1 μM STS on poly-lysine-coated coverslips (Sigma Aldrich P4832) in 24-well plates. […] The cells were fixed and permeabilized with 4% PFA in PBS with 0.1% Triton X-100 (PBT), with 200 μL per well. The plates were covered with foil, and the cells were incubated and shaken at room temperature for 15-20 min. The PFA was disposed of safely, and the cells were washed with PBT three times. The cells were blocked with 5% normal goat serum (NGS) (ThermoFisher 50197Z) in PBT for 1 h at room temperature. The cells were then incubated with mouse 3F3 anti-Ferroptotic Membrane Antibody (3F3-FMA) at 1:500 dilution in PBT with 1% bovine serum albumin (BSA) and 5% NGS at 4° C. overnight. The cells were washed with PBT for 5 min three times. The cells were then incubated with goat anti-mouse IgG (H+L) Highly Cross-Adsorbed Secondary Antibody, Alexa Fluor 594 (Thermo Fisher Scientific Cat #A-11032, RRID:AB_2534091) at 1:200 dilution and FITC-phalloidin at 1:1000 dilution in PBT with 1% BSA for 1 h at room temperature. […]
Automated image analysis. […] Nuclei were detected via the DAPI signal. […] In a next step, morphology/symmetry features, texture (SER features) and intensity properties of the DAPI, FITC and red channel were calculated for each cell region (nuclei, cytoplasm, and membrane). […]

A further assay has as its system OCI-LY7 cells. The assay is described as follows: C11-BODIPY lipid ROS flow cytometry. It is filed as cell-based. Particulars: 5 μM PE, 19 h at 37° C. The method, then:
6 L of media (1% Pen-Strep 10% FBS and 89% RPMI with L-glutamine) containing 400 million OCI-LY7 (DSMZ Cat #ACC-688, RRID:CVCL_1881) cells/L were treated with 5 μM PE (piperazine erastin). Cells were incubated for 19 h at 37° C., then production of lipid ROS was confirmed using BODIPY-C11 by flow cytometry. Ferroptotic cells were pelleted in centrifuge at 1000 rpm for 10 min at 25° C. Cells were resuspended in 1 mL lysis buffer with a pan-protease inhibitor, lysed using a dounce homogenizer. 70% cell lysis was confirmed by microscope. Pellet containing the nuclear fraction and unlysed cells was obtained by centrifuge at 700×g for 10 min at 4° C. Supernatant was spun at 700×g for 10 min at 4° C. Supernatant was then transferred to a new tube and placed in centrifuge at 10,000×g for 45 min at 4° C. Pellet consisting of total membrane was resuspended in upper phase solution. Lower phase was added and mixture was incubated on ice for 5 min. Mixture was spun at 1000×g for 5 min at 4° C. […]
Cells were resuspended in […] HBSS containing 2 μM C11-BODIPY (BODIPY 581/591 C11) (Thermo Fisher Scientific, D3861) and incubated at 37° C. for 15 min. […] Fluorescence intensity was measured on the FL1 channel with gating to record live cells only (gate constructed from DMSO treatment group). A minimum of 10,000 cells were analyzed per condition. […]
(In general: Flow cytometry measures light scatter and fluorescence of single cells or particles in a stream.)

Assay [4] deals with HT-1080 cells. The assay is described as follows: High-content analysis of nucleus area. The conditions noted are these: RSL3 group vs DMSO group. It is filed as cell-based, human. The method, then: For the screening with five technical replicates, HT-1080 cells were washed with PBS, trypsinized and resuspended in cell culture medium. The cell suspension (2,000 cells in 50 μl per well) was dispensed into collagen (Sigma-Aldrich, St. Louis, Mass., USA) pre-coated 384-well plates (PerkinElmer 384-well CellCarrierUltra™). 24 h after seeding, medium was exchanged to medium containing 0.3 μM RSL3 (1 mM stock solution) dissolved in 100% dimethyl sulfoxide (DMSO) or DMSO alone. 50 μl medium with 0.3 μM RSL3/DMSO was added per well. The cells were then incubated (37° C.; 5% CO2) for 2.5 h prior to fixation and antibody staining. […] Finally, plates were recorded using the automated Operetta® microscope with the 20× high NA objective for high-resolution images (PerkinElmer, USA). For quantification, three images of each condition were recorded using three channels (Hoechst, Alexa488, TRITC). […] Quantification on cell number, cytoplasmic intensity, nucleus intensity and spot number per cell was performed using the Columbus Software (PerkinElmer, USA).
Multiparametric image analysis was performed using Columbus Software 2.8.0 (PerkinElmer). […] In a next step we have calculated the morphology and Alexa488 fluorescence intensity in each cell region (nucleus and cytoplasm). […] Each spot was detected as a small region within the corresponding image by having a higher intensity than its surrounding area. […]

Assay [5] concerns HT-1080 cells. Description: Cell death after RSL3 incubation. It is filed as cell-based, human. The conditions noted are these: 1 μM, 4 h incubation.

The structures appear in SMILES notation.

In the case of `O=S(=O)(NC1CCCCC1)c1ccc2c(c1)C(=NO)c1cc(S(=O)(=O)NC3CCCCC3)ccc1-2` [FIN56, ferroptosis inducer 56, reference compound], the “change of 3F3-FMA staining pattern caused by inducer” value (“change” for short) with HT-1080 cells [1] (10 μM) is listed as “same changes of 3F3-FMA pattern were observed”. For the same compound, in the assay on HT-1080 cells [2] (10 μM, 8 h incubation), the “nuclei shrank (mean nucleus area)” value turned out to be 17%.

For the compound `CC1(CCO)CC2(CCC(C(C)(C)C)CC2)OO1` (stereo not drawn) [FINO2, ferroptosis inducer endoperoxide, reference compound], the “change” value with HT-1080 cells [1] (15 μM) is “same changes of 3F3-FMA pattern were observed”. For the same compound, the “nuclei shrank (mean nucleus area)” value with HT-1080 cells [2] (15 μM, 8 h incubation) was found to be 49%.

In the case of `CC(C)Oc1ccc(C(=O)Cn2ccnc2)cc1-n1c(CN2CCN(C(=O)COc3ccc(Cl)cc3)CC2)nc2ccccc2c1=O` [IKE, imidazole ketone erastin], the “level of TfR1 mRNAs” value in the assay on TfR1 mRNA (10 μM) is given as “didn't increase”. Also, the “change” value with HT-1080 cells [1] (10 μM) is listed as “same changes of 3F3-FMA pattern were observed”. The “TfR1 membrane fluorescence intensity after treatment” value with HT-1080 cells [3] (20 μM) is on record as “significant increase”. Moreover, the “nuclei shrank (mean nucleus area)” value with HT-1080 cells [2] (10 μM, 8 h incubation) came out at 12%.

`CC(C)Oc1ccc(CN2CCNCC2)cc1-n1c(CN2CCN(C(=O)COc3ccc(Cl)cc3)CC2)nc2ccccc2c1=O` [PE, piperazine erastin]: in the assay with OCI-LY7 cells, the “lipid peroxides (C11-BODIPY fluorescence)” value was “increase in lipid peroxides”.

Take `COC(=O)c1ccc([C@@H]2c3[nH]c4ccccc4c3C[C@@H](C(=O)OC)N2C(=O)CCl)cc1` [RSL3, (1S, 3R)-RSL3]: in the assay with TfR1 mRNA (1 μM), the “level of TfR1 mRNAs” value was “didn't increase”. For the same compound, in the assay on HT-1080 cells [4], the “decrease of average nucleus area” value is 17%. The compound further gave an HT-1080 cells died with HT-1080 cells [5] of 30%. In addition, in the assay with HT-1080 cells [3] (1 μM), the “TfR1 membrane fluorescence intensity after treatment” value is reported as “significant increase”. For the same compound, the “nuclei shrank (mean nucleus area)” value with HT-1080 cells [2] (1 μM, 4 h incubation) was 27%.

Consider `CC(C)(C)OO` [tBuOOH, reference compound], for which the “change” value in the assay with HT-1080 cells [1] (100 μM) is “same changes of 3F3-FMA pattern were observed”.
